# Test results reported in EPA's ToxRefDB 2.
# What was measured:
# rat [1] = settings: Sub-acute repeat dose toxicity, sprague dawley, Oral, Gavage/Intubation, dose end: 4 week, group: systemic
# rat [2] = settings: Prenatal developmental toxicity study, sprague dawley, Oral, Gavage/Intubation, dose end: 17 GD
# rabbit = settings: Prenatal developmental toxicity study, himalayan, Oral, Gavage/Intubation, dose end: 18 GD, group: maternal
# rat [3] = settings: Fertility (Segment I); sprague dawley; Oral; Gavage/Intubation; dose end: 1 generation; group: parental; systemic / in life observation / body weight / body weight gain
# rat [4] = settings: Sub-acute repeat dose toxicity, sprague dawley, Oral, Gavage/Intubation, dose end: 36 day, group: systemic
# mouse = settings: Carcinogenicity, Oral, Feed, dose end: 720 day, group: systemic
# [5] = systemic / hematology / mean corpuscular (cell) volume (mcv) / mean corpuscular (cell) volume (mcv) + systemic / pathology microscopic / …
# [6] = group: developmental, developmental / developmental malformation / general / crown-rump length + systemic / in life observation / body weight / fetal weight
# [7] = group: maternal, reproductive / reproductive performance / resorptions / resorptions + systemic / in life observation / body weight / body weight + systemic…
# [8] = systemic / in life observation / body weight / body weight gain + systemic / in life observation / food consumption / food consumption
# [9] = systemic / in life observation / body weight / body weight gain + systemic / in life observation / water consumption / water consumption
# [10] = systemic / in life observation / water consumption / water consumption
# [11] = systemic / hematology / [other] / [other] + systemic / in life observation / body weight / body weight gain + systemic / in life observation…
# [12] = systemic / in life observation / mortality / mortality
structure (smiles),measurement,setting,value
CCN(CC)C(=O)c1cc(S(=O)(=O)Cc2ccccc2)c(N2CCC(c3ccccc3)CC2)cc1N(CC)CCN(C)C [HMR1171],NEL,rat [1]; systemic / clinical chemistry / alkaline phosphatase (alp/alk) / alkaline phosphatase (alp/alk) + systemic / clinical chemistry / …,5 mg/kg/day
same,LEL,rat [1]; [5],20 mg/kg/day
same,LOAEL,rat [1]; [5],20 mg/kg/day
same,NOAEL,rat [1]; [5],5 mg/kg/day
same,LEL,rat [2]; [6],60 mg/kg/day
same,LOAEL,rat [2]; [6],60 mg/kg/day
same,NEL,rat [2]; [6],10 mg/kg/day
same,NOAEL,rat [2]; [6],10 mg/kg/day
same,LEL,rat [2]; [7],60 mg/kg/day
same,LOAEL,rat [2]; [7],60 mg/kg/day
same,NEL,rat [2]; [7],10 mg/kg/day
same,NOAEL,rat [2]; [7],10 mg/kg/day
same,LOAEL,rabbit; [8],> 240 mg/kg/day
same,NEL,rabbit; [8],60 mg/kg/day
same,NOAEL,rabbit; [8],≥ 240 mg/kg/day
same,LEL,rabbit; systemic / in life observation / food consumption / food consumption,120 mg/kg/day
CS(=O)(=O)N[C@@H](CCCCN)C(=O)NC[C@H](CC1(C(=O)N[C@@H](Cc2ccc(O)cc2)C(=O)O)CCCC1)C(=O)O [Sampatrilat],LEL,rat [3],200 mg/kg/day
same,LOAEL,rat [3],> 1000 mg/kg/day
same,NEL,rat [3],50 mg/kg/day
same,NOAEL,rat [3],≥ 1000 mg/kg/day
same,LOAEL,rat [4]; [9],> 300 mg/kg/day
same,NOAEL,rat [4]; [9],≥ 300 mg/kg/day
same,LEL,rat [4]; [10],30 mg/kg/day
same,NEL,rat [4]; [10],< 30 mg/kg/day
same,LOAEL,mouse; [11],> 600 mg/kg/day
same,NOAEL,mouse; [11],≥ 600 mg/kg/day
same,LEL,mouse; [12],40 mg/kg/day
same,NEL,mouse; [12],< 40 mg/kg/day
